Values after ≈ are worked out from the molar mass of the structure shown.
Assays:
Staphylococcus aureus = assay: In vitro antimicrobial activity against Staphylococcus aureus X1; format: functional
Streptococcus pyogenes [1] = assay: In vivo effective dose against experimental infections in rodent caused by Streptococcus pyogenes C203 when administered sc; format: functional
Streptococcus pneumoniae = assay: In vitro antimicrobial activity against Streptococcus pneumoniae; format: functional
[2] = tested on: Staphylococcus epidermidis; assay: In vitro antimicrobial activity against Staphylococcus epidermidis EPI1; format: functional
Enterococcus faecium = assay: In vitro antimicrobial activity against Streptococcus faecium X66; format: functional, streptococcus fae-cium
Streptococcus pyogenes [3] = assay: In vitro antimicrobial activity against Streptococcus pyogenes C203; format: functional
Haemophilus influenzae = assay: In vitro antimicrobial activity against Haemophilus influenzae.; format: functional

SMILES	MIC (Staphylococcus aureus)	ED50 (Streptococcus pyogenes [1])	MIC (Streptococcus pneumoniae)	MIC [2]	MIC (Enterococcus faecium)	MIC (Streptococcus pyogenes [3])	MIC (Haemophilus influenzae)
CCOC(=O)c1ccc(OCC[C@H]2C[C@@H](C)C(=O)/C=C/C(C)=C/[C@H](CO[C@@H]3O[C@H](C)[C@@H](O)[C@@H](OC)[C@H]3OC)[C@@H](CC)OC(=O)C[C@@H](O)[C@H](C)[C@H]2O[C@@H]2O[C@H](C)[C@@H](O)[C@H](N(C)C)[C@H]2O)cc1	0.5 µg/mL (≈ 0.542 µM)	> 10 mg/kg	1 µg/mL (≈ 1.08 µM)	0.5 µg/mL (≈ 0.542 µM)	8 µg/mL (≈ 8.68 µM)	0.5 µg/mL (≈ 0.542 µM)	–
CC[C@H]1OC(=O)C[C@@H](O)[C@H](C)[C@@H](O[C@@H]2O[C@H](C)[C@@H](O)[C@H](N(C)C)[C@H]2O)[C@@H](CCN2C(=O)c3ccccc3C2=O)C[C@@H](C)C(=O)/C=C/C(C)=C/[C@@H]1CO	4 µg/mL (≈ 5.49 µM)	–	64 µg/mL (≈ 87.8 µM)	4 µg/mL (≈ 5.49 µM)	16 µg/mL (≈ 22 µM)	64 µg/mL (≈ 87.8 µM)	64 µg/mL (≈ 87.8 µM)
CC[C@H]1OC(=O)C[C@@H](O)[C@H](C)[C@@H](O[C@@H]2O[C@H](C)[C@@H](O[C@H]3C[C@@](C)(O)[C@@H](O)[C@H](C)O3)[C@H](N(C)C)[C@H]2O)[C@@H](CCOc2ccc([N+](=O)[O-])cc2)C[C@@H](C)C(=O)/C=C/C(C)=C/[C@@H]1CO[C@@H]1O[C@H](C)[C@@H](O)[C@@H](OC)[C@H]1OC	1 µg/mL (≈ 0.962 µM)	–	16 µg/mL (≈ 15.4 µM)	1 µg/mL (≈ 0.962 µM)	128 µg/mL (≈ 123 µM)	2 µg/mL (≈ 1.92 µM)	> 128 µg/mL
CC[C@H]1OC(=O)C[C@@H](O)[C@H](C)[C@@H](O[C@@H]2O[C@H](C)[C@@H](O[C@H]3C[C@@](C)(O)[C@@H](O)[C@H](C)O3)[C@H](N(C)C)[C@H]2O)[C@@H](CCOc2ccc(-c3ccccc3)cc2)C[C@@H](C)C(=O)/C=C/C(C)=C/[C@@H]1CO[C@@H]1O[C@H](C)[C@@H](O)[C@@H](OC)[C@H]1OC	2 µg/mL (≈ 1.87 µM)	–	1 µg/mL (≈ 0.934 µM)	2 µg/mL (≈ 1.87 µM)	8 µg/mL (≈ 7.47 µM)	2 µg/mL (≈ 1.87 µM)	> 128 µg/mL
CC[C@H]1OC(=O)C[C@@H](O)[C@H](C)[C@@H](O[C@@H]2O[C@H](C)[C@@H](O[C@H]3C[C@@](C)(O)[C@@H](O)[C@H](C)O3)[C@H](N(C)C)[C@H]2O)[C@@H](CCN2C(=O)c3ccccc3C2=O)C[C@@H](C)C(=O)/C=C/C(C)=C/[C@@H]1C	64 µg/mL (≈ 74.7 µM)	–	8 µg/mL (≈ 9.33 µM)	64 µg/mL (≈ 74.7 µM)	128 µg/mL (≈ 149 µM)	64 µg/mL (≈ 74.7 µM)	> 128 µg/mL
CC[C@H]1OC(=O)C[C@@H](O)[C@H](C)[C@@H](O[C@@H]2O[C@H](C)[C@@H](O)[C@H](N(C)C)[C@H]2O)[C@@H](CCOC(C)=O)C[C@@H](C)C(=O)/C=C/C(C)=C/[C@@H]1CO[C@@H]1O[C@H](C)[C@@H](O)[C@@H](OC)[C@H]1OC	0.5 µg/mL (≈ 0.613 µM)	–	2 µg/mL (≈ 2.45 µM)	0.25 µg/mL (≈ 0.306 µM)	8 µg/mL (≈ 9.8 µM)	0.12 µg/mL (≈ 0.147 µM)	16 µg/mL (≈ 19.6 µM)
CC[C@H]1OC(=O)C[C@@H](O)[C@H](C)[C@@H](O[C@@H]2O[C@H](C)[C@@H](O)[C@H](N(C)C)[C@H]2O)[C@@H](CCO)C[C@@H](C)C(=O)/C=C/C(C)=C/[C@@H]1C	4 µg/mL (≈ 6.85 µM)	–	16 µg/mL (≈ 27.4 µM)	16 µg/mL (≈ 27.4 µM)	32 µg/mL (≈ 54.8 µM)	16 µg/mL (≈ 27.4 µM)	32 µg/mL (≈ 54.8 µM)
CC[C@H]1OC(=O)C[C@@H](O)[C@H](C)[C@@H](O[C@@H]2O[C@H](C)[C@@H](O[C@H]3C[C@@](C)(O)[C@@H](O)[C@H](C)O3)[C@H](N(C)C)[C@H]2O)[C@@H](CCOC(C(F)(F)F)C(F)(F)F)C[C@@H](C)C(=O)/C=C/C(C)=C/[C@@H]1CO[C@@H]1O[C@H](C)[C@@H](O)[C@@H](OC)[C@H]1OC	4 µg/mL (≈ 3.74 µM)	–	32 µg/mL (≈ 30 µM)	4 µg/mL (≈ 3.74 µM)	> 128 µg/mL	8 µg/mL (≈ 7.49 µM)	> 128 µg/mL
CCOC(=O)NN(CC[C@H]1C[C@@H](C)C(=O)/C=C/C(C)=C/[C@H](CO[C@@H]2O[C@H](C)[C@@H](O)[C@@H](OC)[C@H]2OC)[C@@H](CC)OC(=O)C[C@@H](O)[C@H](C)[C@H]1O[C@@H]1O[C@H](C)[C@@H](O[C@H]2C[C@@](C)(O)[C@@H](O)[C@H](C)O2)[C@H](N(C)C)[C@H]1O)C(=O)OCC	2 µg/mL (≈ 1.86 µM)	–	8 µg/mL (≈ 7.43 µM)	4 µg/mL (≈ 3.72 µM)	> 128 µg/mL	8 µg/mL (≈ 7.43 µM)	> 128 µg/mL
